Entries after “also recorded” stand apart in the source; their conditions may differ. Read-outs that look alike come from different tables or passages of the source.
Tests used:
[1] = Phase 1 open-label drug interaction study: effect of ketoconazole on the pharmacokinetics of NBI-98854 in healthy subjects; format: in vivo, human; conditions: N = 24; for CL/F Mean (SD): analyte NBI-98854; for AUC(0-inf): read-out: AUC0-∞ Mean (SD); for Cmax: read-out: Cmax Mean (SD); for AUC(0-t): plasma
Protocol: All subjects received the same treatment. […] Subjects were given meals upon completion of study assessments/dosing and at regular meal times during their stay in the research unit. […] Blood specimens to determine ketoconazole plasma concentrations were collected predose through Day 9. Safety and tolerability was assessed through Day 10. […] The tmax was analyzed using non-parametric methods. […] Safety data were summarized using descriptive statistics.

[2] = Safety and tolerability in the Phase 1 ketoconazole interaction study; format: in vivo; conditions: for Subjects with TEAE: Constipation / Subjects with TEAE: Dizziness postural / Subjects with TEAE: Gastrointestinal Disorders / Subjects with TEAE: Headache / Subjects with TEAE: Injury, Poisoning and Procedural Complications / Subjects with TEAE: Nausea / Subjects with TEAE: Nervous System Disorders / Subjects with TEAE: Procedural dizziness / Subjects with treatment-emergent adverse event: Overall: N = 24
Protocol: This was a Phase 1, single-center, open-label, drug interaction study conducted in 24 healthy male and female subjects.
All subjects received the same treatment. Subjects received a single dose of 50 mg NBI-98854 on Days 1 and 6 at approximately 0800 hours. In addition, subjects received 200 mg ketoconazole twice daily (bid) on Days 5 through 9 at approximately 0800 and 2000 hours. Subjects were required to fast overnight from approximately 10 hours before until 4 hours after NBI-98854 dose on Days 1 and 6. Subjects were given meals upon completion of study assessments/dosing and at regular meal times during their stay in the research unit.
TEAEs are summarized below. There were no pretreatment AEs. […] Five subjects (20.8%) experienced 6 AEs during the study; all AEs occurred after the initial treatment with NBI-98854 alone. […] The only AE that occurred in >1 subject was headache (2 subjects, 8.3%). […] Two events were considered possibly related to study drug, 1 event of headache and the event of dizziness postural. The other event of headache was considered unlikely related to study drug.

human VMAT1 transporter = target: T1, human VMAT1 transporter (Homo sapiens, UniProt P54219); assay: Uptake in cells expressing VMAT1; format: cell-based; conditions: concentrations up to 10 μM, listed as VBZ
T1 construct: expressed in transfected cells
T1 sequence (P54219 1-525): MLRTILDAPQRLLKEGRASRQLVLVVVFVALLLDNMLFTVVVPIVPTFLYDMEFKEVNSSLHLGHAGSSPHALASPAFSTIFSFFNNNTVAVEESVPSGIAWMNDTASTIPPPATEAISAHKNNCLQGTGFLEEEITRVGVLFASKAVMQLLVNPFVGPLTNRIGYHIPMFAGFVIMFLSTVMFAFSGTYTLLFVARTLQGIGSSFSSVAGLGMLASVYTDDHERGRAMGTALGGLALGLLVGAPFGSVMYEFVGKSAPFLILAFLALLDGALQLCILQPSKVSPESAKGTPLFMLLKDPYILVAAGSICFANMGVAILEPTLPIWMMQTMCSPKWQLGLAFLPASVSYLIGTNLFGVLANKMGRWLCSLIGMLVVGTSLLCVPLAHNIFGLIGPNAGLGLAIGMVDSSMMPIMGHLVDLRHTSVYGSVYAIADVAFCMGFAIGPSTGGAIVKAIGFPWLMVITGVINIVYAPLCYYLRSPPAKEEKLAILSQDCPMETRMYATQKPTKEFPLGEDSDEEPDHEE

[3] = tested on: more than 80 targets (GPCRs, cell-surface monoamine transporters, ion channels including HERG); assay: Cerep multi-target activity screen; conditions: broad panel screen
[4] = both sexes, human, oral, analyte NBI-98854 in plasma, NBI-98854 (50 mg) alone
[5] = both sexes, human, oral, analyte NBI-98854 in plasma, NBI-98854 (80 mg) + Ketoconazole (200 mg)
[6] = NBI-98854 (50 mg) + Ketoconazole (200 mg)

COc1cc2c(cc1OC)[C@H]1C[C@@H](OC(=O)[C@@H](N)C(C)C)[C@H](CC(C)C)CN1CC2 [NBI-98854, (S)-2-amino-3-methyl-butyric acid (2R, 3R,11bR)-3-isobutyl-9,10-dimethoxy-1,3,4,6,7,11b-hexahydro-2H-pyrido[2,1-a]isoquinolin-2-yl ester]
CL/F Mean (SD) ([1]; NBI-98854 (50 mg) alone): 16.3 (5.94) L/hr
CL/F Mean (SD) ([1]; NBI-98854 (80 mg) + Ketoconazole (200 mg)): 7.96 (2.75) L/hr
Tlag Mean (SD) ([1]; analyte NBI-98854 in plasma, NBI-98854 (50 mg) alone): 0.11 (0.13) hours
Tlag Mean (SD) ([1]; analyte NBI-98854 in plasma, NBI-98854 (80 mg) + Ketoconazole (200 mg)): 0.02 (0.07) hours
AUC(0-inf) [1, 4]: 3470 ng·h/mL
Cmax [1, 4]: 425 ng/mL
AUC(0-inf) [1, 5]: 7340 ng·h/mL
Cmax [1, 5]: 624 ng/mL
MRT ([1]; both sexes, human, oral, analyte NBI-98854 in plasma, NBI-98854 (80 mg) + Ketoconazole (200 mg), read-out: MRT Mean (SD)): 22 h
half-life ([1]; both sexes, human, oral, analyte NBI-98854 in plasma, NBI-98854 (80 mg) + Ketoconazole (200 mg), read-out: t1/2 Mean (SD) (converted)): 20 h
AUC(0-t) ([1]; both sexes, human, oral, 50 mg, analyte NBI-98854 in plasma, NBI-98854 (50 mg) alone, read-out: AUC0-24 Mean (SD)): 2580 ng·h/mL
AUC(0-t) ([1]; both sexes, human, oral, 50 mg, analyte NBI-98854 in plasma, NBI-98854 (50 mg) alone, read-out: AUC0-tlast Mean (SD)): 3420 ng·h/mL
AUC(0-t) ([1]; both sexes, human, oral, analyte NBI-98854 in plasma, NBI-98854 (80 mg) + Ketoconazole (200 mg), read-out: AUC0-24 Mean (SD)): 4820 ng·h/mL
AUC(0-t) ([1]; both sexes, human, oral, analyte NBI-98854 in plasma, NBI-98854 (80 mg) + Ketoconazole (200 mg), read-out: AUC0-tlast Mean (SD)): 7100 ng·h/mL
Subjects with headache (only AE in >1 subject) ([2]; 2 subjects): 8.3%
Subjects with TEAE: Constipation [2, 6]: 0 n, %
Subjects with TEAE: Dizziness postural [2, 6]: 0 n, %
Subjects with TEAE: Gastrointestinal Disorders [2, 6]: 0 n, %
Subjects with TEAE: Headache [2, 6]: 0 n, %
Subjects with TEAE: Injury, Poisoning and Procedural Complications [2, 6]: 0 n, %
Subjects with TEAE: Nausea [2, 6]: 0 n, %
Subjects with TEAE: Nervous System Disorders [2, 6]: 0 n, %
Subjects with TEAE: Procedural dizziness [2, 6]: 0 n, %
Subjects with treatment-emergent adverse event: Overall [2, 6]: 0 n, %
Subjects with TEAE: Constipation ([2]; NBI-98854 (50 mg)): 1 (4.2) n, %
Subjects with TEAE: Dizziness postural ([2]; NBI-98854 (50 mg)): 1 (4.2) n, %
Subjects with TEAE: Gastrointestinal Disorders ([2]; NBI-98854 (50 mg)): 2 (8.3) n, %
Subjects with TEAE: Headache ([2]; NBI-98854 (50 mg)): 2 (8.3) n, %
Subjects with TEAE: Injury, Poisoning and Procedural Complications ([2]; NBI-98854 (50 mg)): 1 (4.2) n, %
Subjects with TEAE: Nausea ([2]; NBI-98854 (50 mg)): 1 (4.2) n, %
Subjects with TEAE: Nervous System Disorders ([2]; NBI-98854 (50 mg)): 3 (12.5) n, %
Subjects with TEAE: Procedural dizziness ([2]; NBI-98854 (50 mg)): 1 (4.2) n, %
Subjects with treatment-emergent adverse event: Overall ([2]; NBI-98854 (50 mg)): 5 (20.8) n, %
Tolerability ([2]; administered alone and concomitantly with ketoconazole in healthy volunteers): well tolerated
Subjects who experienced AEs during the study ([2]; all AEs after the initial treatment with NBI-98854 alone, onset Day 1 or 2, five subjects, 6 AEs): 20.8%
12-lead ECGs ([2]; during the study): no abnormal ECGs that were assessed as clinically significant
Body weight changes ([2]; during the study): no important changes in body weight
Physical examination findings ([2]; during the study): No abnormal physical examination findings
Vital signs including orthostatic changes ([2]; postdose): No clinically relevant postdose mean vital signs changes
Clinical laboratory values (hematology, serum chemistry, urinalysis) ([2]; pre- and postdose): no results considered clinically significant
Deaths, SAEs, discontinuations due to an AE ([2]; whole study): no deaths, SAEs, or discontinuations due to an AE
Intensity of AEs ([2]; whole study): mild in intensity
inhibition of uptake through VMAT1 (human VMAT1 transporter): no significant inhibitory activity; also recorded: no significant effect
affinity for more than 80 binding sites, including receptors, monoamine transporters, and ion channels [3]: little to no affinity
